Experiments:
[1] = molecular target: T1, RSV pre-fusion F protein of SEQ ID NO: 10 (Human respiratory syncytial virus A, UniProt P03420, D486N/DEL108-136/I379V/M447V/N67I/P102A/S215P); assay type: physicochemical; conditions: for trimer % after slow freeze with compound vs without: all formulation buffers (AP1, FB12, formulation 1 and 2); for aggregation after slow freeze: formulation 5b (pH 8.3) and 5a (pH 7.0)
T1 construct: made in house
Description: The RSV pre-fusion F protein of SEQ ID NO: 10 was diluted to 0.3 mg/ml in phosphate buffer (Formulation 1) and 0.75 ml was filled in glass injection vials with rubber stopper and sealed with aluminum caps. Additionally, protein was diluted in the formulation buffers with inhibitor in a 1:3 trimer:compound ratio. One inhibitor binds one trimer so with a 1:3 ratio there is an excess of inhibitor. […] In 24 hours, samples were cooled down from RT to −70° C. Samples were thawed to RT and analyzed by analytical Size Exclusion Chromatography (SEC) to measure loss of RSV F trimer.
0.75 ml of each formulation was filled in glass injection vials with rubber stopper and sealed with aluminum caps. Additionally, protein was diluted in the formulation buffers and inhibitor was added in a 1:1, 1:3, 1:9, 1:27 and 1:50 trimer: compound ratio. Final compound concentrations were 1.7×10^−6 M, 5.2×10^−6 M, 1.6×10^−5M, 4.6×10^−5, and 8.6×10^−5 M, respectively. Vials were slowly frozen to −70° C. in 24 hours. Samples were subsequently thawed to RT and analyzed by analytical Size Exclusion Chromatography (SEC) to measure loss of RSV F trimer compared the sample that was kept at 4° C.

[2] = molecular target: T2, RSV pre-fusion F (preF) protein of SEQ ID NO: 10 (Human respiratory syncytial virus A, UniProt P03420, D486N/DEL108-136/I379V/M447V/N67I/P102A/S215P); assay type: physicochemical; conditions: with compound 1:3 trimer:compound in sample and UF/DF buffer; formulation 2 without PS20; two weeks after UF/DF
T2 construct: made in house
Description: The UF/DF was performed with and without compound. […] A kDa filter in the UF/DF (Cogent μscale TFF system (Merck Millipore, Burlington, MA)) was used and a diavolume of 350 ml UF/DF buffer was used.
After the UF/DF the hydrodynamic diameters were measured by Dynamic Light Scattering (DLS) UNcle from vendor Unchained Labs (Pleasanton, CA, US) two weeks after the UF/DF.

HIV-1 ConB-SOSIP Env = HIV-1 ConB-SOSIP Env (Human immunodeficiency virus type 1 group M subtype B, UniProt P04578, A336T/A346V/A501C/A612T/D137T/D187N/D632E/D99N/DEL145-146/DEL310-311/DEL356-356/DEL401-405/DUP460-460/E409T/E464T/E509R/E620D/E630Q/F175L/F396S/G167D/G321D/H625N/H643Y/I148K/I181V/I182V/I320G/I360V/I467T/I559P/I580V/INS134N/INS317Y/INS395N/INS508RR/K130N/K135N/K192R/K322I/K362N/K429E/K510R/L518M/M147E/M326I/M535I/N230D/N325D/N624D/N636D/Q621E/R306S/R308H/S128T/S162T/S347K/S387T/S398G/S411N/S440R/S461N/S465T/S640G/S644T/T140N/T188N/T194I/T232K/T290E/T31A/T373M/T605C/T626M/V275E/V318A/V87E); assay: Thermostability of HIV-1 ConB-SOSIP Env by nanoDSF; assay type: physicochemical; conditions: 50-fold molar excess of inhibitor; Env 0.8 mg/ml; DMSO 1.95% v/v
HIV Env ConB SOSIP = molecular target: T3, HIV Env ConB SOSIP (Human immunodeficiency virus type 1 group M subtype B, UniProt P04578, A336T/A346V/A501C/A612T/D137T/D187N/D632E/D99N/DEL145-146/DEL310-311/DEL356-356/DEL401-405/DUP460-460/E409T/E464T/E509R/E620D/E630Q/F175L/F396S/G167D/G321D/H625N/H643Y/I148K/I181V/I182V/I320G/I360V/I467T/I559P/I580V/INS134N/INS317Y/INS395N/INS508RR/K130N/K135N/K192R/K322I/K362N/K429E/K510R/L518M/M147E/M326I/M535I/N230D/N325D/N624D/N636D/Q621E/R306S/R308H/S128T/S162T/S347K/S387T/S398G/S411N/S440R/S461N/S465T/S640G/S644T/T140N/T188N/T194I/T232K/T290E/T31A/T373M/T605C/T626M/V275E/V318A/V87E); assay: Storage stability of ConB-SOSIP Env, antigenicity by AlphaLISA (bNAbs / non-bNAbs); assay type: binding, HIV-1; conditions: 1 week at 4° C., 50-fold excess
T3 construct: made in house; host or cells: HEK293F
Description: HIV env trimer was incubated in Citrate buffer (20 mM Citrate. 75 mM NaCl 5% Sucrose, 0.03% Tween-80 pH 6.0) at 0.8 mg/ml for 1 week at 4° C. with or without inhibitor. Entry inhibitor XVII was added in a 50-fold excess to the purified Env ConB SOSIP. As the inhibitor was dissolved in DMSO, the control sample with only Env contained the same concentration of DMSO (1.95% v/v) as the Env with the inhibitor. The quality of HIV Env can be evaluated with broadly neutralizing antibodies (bNAbs) that bind the closed, native pre-fusion conformation of Env, versus non-broadly neutralizing antibodies (non-bNAbs) which recognize non natively folded Envs (Rutten et. al., Cell Reports 18). […] Preferential binding to bNAbs was higher and binding to all five tested non-bNAbs, except for 447-52D, was decreased for the composition that contained the inhibitor.

| Compound | trimer % after slow freeze with compound vs without [1] | aggregation after slow freeze [1] | trimer signal lost after slow freeze/thaw (analytical SEC) ([1]; phosphate buffer (Formulation 1), preF 0.3 mg/ml, 1:3 trimer:compound, RT to −70° C. in 24 hours) | hydrodynamic diameter (DLS) after UF/DF [2] [nm] | increase of melting temperature of Env (nanoDSF) (HIV-1 ConB-SOSIP Env) [°C] | binding to bNAbs vs Env without inhibitor (HIV Env ConB SOSIP) | binding to five tested non-bNAbs, except for 447-52D, vs Env without inhibitor (HIV Env ConB SOSIP) | quality of HIV Env by antigenicity (AlphaLISA) vs Env without inhibitor (HIV Env ConB SOSIP; Citrate buffer pH 6.0) |
| --- | --- | --- | --- | --- | --- | --- | --- | --- |
| CS(=O)(=O)CCCn1c(Cn2c(=O)n(C3CC3)c3ccncc32)nc2cc(Cl)ccc21 [Compound II, 3-[[5-chloro-1-(3-methylsulfonylpropyl)benzimidazol-2-yl]methyl]-1-cyclopropyl-imidazo[4,5-c]pyridin-2-one] | higher trimer % | no aggregations were observed | 2.4+/−1.9% | – | – | – | – | – |
| CS(=O)(=O)CCCn1c(Cn2c(=O)n(CC(F)(F)F)c3ccncc32)cc2cc(Cl)ccc21 [Compound IV, 3-[[5-chloro-1-(3-methylsulfonylpropyl)indol-2-yl]methyl]-1-(2,2,2-trifluoroethyl)imidazo[4,5-c]pyridin-2-one] | higher trimer % | no aggregations were observed | – | 8.65 | – | – | – | – |
| COc1ccnc2[nH]cc(C(=O)C(=O)N3CCN(C(=O)c4ccccc4)C[C@H]3C)c12 [XVII, 1-[(2R)-4-benzoyl-2-methyl-piperazin-1-yl]-2-(4-methoxy-1H-pyrrolo[2,3-b]pyridin-3-yl)ethane-1,2-dione] | – | – | – | – | ~5 | higher | decreased | superior |

From US20230310573A1, “Stabilized Vaccine Compositions” (priority 2020, published 2023)
